Laboratory results published in patent US3931262A, “Hydrophilic and difficultly volatile biocidal triorganotin compounds” (priority 1972, dated 1976).

Tests used:
Solubility in water = format: physicochemical; conditions: Table 1 and text
Description: Solubility properties of tributyltin derivatives [formula]

[1] = tested on: Salmonella cholerae-suis VBIB; format: cell-based
Paecilomyces varioti CBS = experiment: Microbiological test; format: cell-based
Description: (§1) In the test for microbiocidal activity the compounds listed hereinbelow yielded the values indicated in the following Table: No. Compound __________________________________________________________________________ 1 (n--C4 H9)3 Sn--S--CH2 --CH2 --COO.(CH 2 --CH2 --O--n H(n~9) 2 (C6 H5)3 Sn--S--(CH2)3 --SO3.Na CH3 .vertline. 3 --Sn--S--CH2 --CH2 --COO--(CH2 --CH2 --O)n.H(n ~9) .vertline. CH3 4 (n--C4 H9)3 Sn--S--CH2 --COO.H.N(CH2 CH2 OH)3 5 (n--C4 H9)3 Sn--S--(CH2)2 --COO.H.N(CH2 CH2 OH)3 6 (n--C4 H9)3 Sn--S--CH2 --CO.N(CH2 CH2 OH)2 __________________________________________________________________________

[2] = tested on: Trichoderma viride CEB 3334.2; experiment: Microbiological test; format: cell-based
Description: as §1

[3] = tested on: Polystictus versicolor EMPA61; experiment: Microbiological test; format: cell-based
Description: as §1

Salmonella pullorum VBIZ = experiment: Microbiological test; format: cell-based
Description: as §1

Trichophyton gypseum CBS = experiment: Microbiological test; format: cell-based
Description: as §1

Fusarium oxysporum CBS = experiment: Microbiological test; format: cell-based
Description: as §1

Coniphora cerebella CBS = experiment: Microbiological test; format: cell-based
Description: as §1

[4] = tested on: Escherichia coli RP 45410; experiment: Microbiological test; format: cell-based
Description: as §1

[5] = tested on: Arizona paracolon 7:1.7,8; experiment: Microbiological test; format: cell-based
Description: as §1

[6] = tested on: Staphylococcus aureus SG 511; experiment: Microbiological test; format: cell-based
Description: as §1

[7] = tested on: Corynebacterium diphteroides FUR; experiment: Microbiological test; format: cell-based
Description: as §1

[8] = tested on: Streptococcus faecalis NCTC 8619; experiment: Microbiological test; format: cell-based
Description: as §1

[9] = tested on: Aspergillus flavus CBS 12662; experiment: Microbiological test; format: cell-based
Description: as §1

[10] = tested on: Escherichia coli NCTC 8195; experiment: Microbiological test; format: cell-based
Description: as §1

Poria vaporia CBS = experiment: Microbiological test; format: cell-based
Description: as §1

[11] = tested on: Pseudomonas fluorescens NCTC 4755; experiment: Microbiological test; format: cell-based
Description: as §1

[12] = tested on: Stachybotrys atra CBS 32465; experiment: Microbiological test; format: cell-based
Description: as §1

Lenzites abietina CBS = experiment: Microbiological test; format: cell-based
Description: as §1

[13] = tested on: Mycobacterium phlei CITM 61; experiment: Microbiological test; format: cell-based
Description: as §1

[14] = tested on: Alternaria tenuis CBS 10426; experiment: Microbiological test; format: cell-based
Description: as §1

[15] = tested on: Pullularia pullulans CBS 10767; experiment: Microbiological test; format: cell-based
Description: as §1

Candida albicans CBS = experiment: Microbiological test; format: cell-based
Description: as §1

Sarcina ureae SMB 81 = experiment: Microbiological test; format: cell-based
Description: as §1

[16] = tested on: Aspergillus niger ATCC 6275; experiment: Microbiological test; format: cell-based
Description: as §1

[17] = tested on: Penicillium funiculosum CEB 329631; experiment: Microbiological test; format: cell-based
Description: as §1

[18] = tested on: Penicillium expansum SMC 36; experiment: Microbiological test; format: cell-based
Description: as §1

[19] = tested on: Streptococcus agalactiae M100; experiment: Microbiological test; format: cell-based
Description: as §1

[20] = tested on: Chaetomium globosum CBS 14851; experiment: Microbiological test; format: cell-based
Description: as §1

[21] = tested on: Staphylococcus aureus SG 511 M6; experiment: Microbiological test; format: cell-based
Description: as §1

[22] = tested on: Bacillus subtilis NCTC 6460; experiment: Microbiological test; format: cell-based
Description: as §1

[23] = tested on: Pasteurella multocida K753; experiment: Microbiological test; format: cell-based
Description: as §1

SMILES	Activity range [1]	Activity range (Paecilomyces varioti CBS)	Activity range [2]	Activity range [3]	Activity range (Salmonella pullorum VBIZ)	Activity range (Trichophyton gypseum CBS)	Activity range (Fusarium oxysporum CBS)	Activity range (Coniphora cerebella CBS)	Activity range [4]	Activity range [5]	Activity range [6]	Activity range [7]	Activity range [8]	Activity range [9]	Activity range [10]	Activity range (Poria vaporia CBS)	Activity range [11]	Activity range [12]	Activity range (Lenzites abietina CBS)	Activity range [13]	also measured
CCC[CH2][Sn]([CH2]CCC)([CH2]CCC)[S]CC(O)CO (stereo not shown) [--CH2 --CH--CH2]																					Solubility in water (in words) (Solubility in water): satisfactory
CCC[CH2][Sn]([CH2]CCC)([CH2]CCC)[S]CC(=O)[O-].OCC[NH+](CCO)CCO [Compound 4, triethylammonium S-tri-n-butyl tin-thioglycolate]	> 300 ppm	10 ppm	10 ppm	100 ppm	> 300 ppm	10 ppm	10 ppm	10 ppm	30 ppm	> 300 ppm	30 ppm	30 ppm	30 ppm	10 ppm	30 ppm	10 ppm	> 300 ppm	10 ppm	10 ppm	30 ppm	Activity range [14]: 10 ppm; Activity range [15]: 10 ppm; Activity range (Candida albicans CBS): 10 ppm; Activity range (Sarcina ureae SMB 81): 30 ppm; Activity range [16]: 10 ppm; Activity range [17]: 30 ppm; Activity range [18]: 10 ppm; Activity range [19]: 30 ppm; Activity range [20]: 10 ppm; Activity range [21]: 30 ppm; Activity range [22]: 30 ppm; Activity range [23]: 30 ppm
CCC[CH2][Sn]([CH2]CCC)([CH2]CCC)[S]CCC(=O)[O-].OCC[NH+](CCO)CCO [Compound 5, triethanolammonium S-tri-n-butyl tin-β-mercaptopropionate]	> 300 ppm	≤ 3 ppm	10 ppm	30 ppm	> 300 ppm	10 ppm	10 ppm	10 ppm	> 300 ppm	> 300 ppm	10 ppm	10 ppm	100 ppm	10 ppm	> 300 ppm	10 ppm	30 ppm	≤ 3 ppm	10 ppm	10 ppm	Activity range [14]: ≤ 3 ppm; Activity range [15]: 10 ppm; Activity range (Candida albicans CBS): 10 ppm; Activity range (Sarcina ureae SMB 81): 30 ppm; Activity range [16]: 10 ppm; Activity range [17]: 10 ppm; Activity range [18]: 10 ppm; Activity range [19]: 30 ppm; Activity range [20]: ≤ 3 ppm; Activity range [21]: 30 ppm; Activity range [22]: 10 ppm; Activity range [23]: 30 ppm
CCC[CH2][Sn]([CH2]CCC)([CH2]CCC)[S]CC(=O)N(CCO)CCO [Compound 6, S-tri-n-butyl tin-thioglycolic acid diethanolamide]	> 300 ppm	≤ 3 ppm	10 ppm	30 ppm	> 300 ppm	10 ppm	10 ppm	10 ppm	30 ppm	> 300 ppm	30 ppm	≤ 1 ppm	30 ppm	10 ppm	30 ppm	10 ppm	30 ppm	≤ 3 ppm	10 ppm	≤ 1 ppm	Activity range [14]: ≤ 3 ppm; Activity range [15]: 10 ppm; Activity range (Candida albicans CBS): 10 ppm; Activity range (Sarcina ureae SMB 81): ≤ 1 ppm; Activity range [16]: 10 ppm; Activity range [17]: 30 ppm; Activity range [18]: 10 ppm; Activity range [19]: 3 ppm; Activity range [20]: ≤ 3 ppm; Activity range [21]: 3 ppm; Activity range [22]: ≤ 1 ppm; Activity range [23]: 30 ppm
